# Assay results: patent publication US9278981B2, “Compounds and compositions for inhibiting the activity of ABL1, ABL2 and BCR-ABL1” (Novartis AG, priority 2012, dated 2016)
# Target: T1, ABL1 (64-515) (Homo sapiens (Human), UniProt P00519)
# Test: Caliper ABL1 (64-515) assay (microfluidic mobility shift)
# Format: biochemical
# T1 sequence (P00519 64-515): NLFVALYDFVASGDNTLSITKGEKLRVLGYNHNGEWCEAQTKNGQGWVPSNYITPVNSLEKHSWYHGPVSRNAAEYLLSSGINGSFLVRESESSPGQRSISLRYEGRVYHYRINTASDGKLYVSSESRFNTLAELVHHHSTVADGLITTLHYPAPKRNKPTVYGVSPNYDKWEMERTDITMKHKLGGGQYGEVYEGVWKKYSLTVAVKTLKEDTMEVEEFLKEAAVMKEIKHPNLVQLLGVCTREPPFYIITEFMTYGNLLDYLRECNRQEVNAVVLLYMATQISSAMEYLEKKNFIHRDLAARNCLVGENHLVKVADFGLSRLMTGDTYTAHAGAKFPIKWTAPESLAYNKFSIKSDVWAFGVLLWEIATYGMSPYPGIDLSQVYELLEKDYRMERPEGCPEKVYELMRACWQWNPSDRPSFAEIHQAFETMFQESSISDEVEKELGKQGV
row,IC50 [nM],SMILES
1,0.7,"N#Cc1cc(F)cc(-c2cc(C(=O)Nc3ccc(OC(F)(F)Cl)cc3)cnc2N2CC[C@@H](O)C2)c1 [Example 293, (R)—N-(4-(Chlorodifluoromethoxy)phenyl)-5-(3-cyano-5-fluorophenyl)-6-(3-hydroxypyrrolidin-1-yl)nicotinamide]"
2,1.9,"NC12CC1CN(c1ncc(C(=O)Nc3ccc(OC(F)(F)F)cc3)cc1-c1cncnc1)C2 (centres unmarked) [Example 226, 6-(1-Amino-3-azabicyclo[3.1.0]hexan-3-yl)-5-(pyrimidin-5-yl)-N-(4-(trifluoromethoxy)phenyl)nicotinamide]"
3,1,"O=C(Nc1ccc(OC(F)(F)Cl)cc1)c1cnc(N2CC[C@@H](O)C2)c(-c2cc(F)cnc2Cl)c1 [Example 288, (R)-2′-Chloro-N-(4-(chlorodifluoromethoxy)phenyl)-5′-fluoro-2-(3-hydroxypyrrolidin-1-yl)-[3,3′-bipyridine]-5-carboxamide]"
4,11,"O=C(Nc1ccc(OC(F)(F)F)cc1)c1cnc(N2CC3CN(CCO)CC3C2)c(-c2cncnc2)c1 (centres unmarked) [Example 281, 6-(5-(2-Hydroxyethyl)hexahydropyrrolo[3,4-c]pyrrol-2(1H)-yl)-5-(pyrimidin-5-yl)-N-(4-(trifluoromethoxy)phenyl)nicotinamide]"
5,0.3,"COc1ncc(-c2cc(C(=O)Nc3ccc(OC(F)(F)Cl)cc3)cnc2N2CC[C@@H](O)C2)cc1C#N [Example 299, (R)—N-(4-(Chlorodifluoromethoxy)phenyl)-5′-cyano-2-(3-hydroxypyrrolidin-1-yl)-6′-methoxy-[3,3′-bipyridine]-5-carboxamide]"
6,1.5,"N#Cc1ccc(F)cc1-c1cc(C(=O)Nc2ccc(OC(F)(F)Cl)cc2)cnc1N1CC[C@@H](O)C1 [Example 287, (R)—N-(4-(Chlorodifluoromethoxy)phenyl)-5-(2-cyano-5-fluorophenyl)-6-(3-hydroxypyrrolidin-1-yl)nicotinamide]"
7,1,"Cc1ccc(F)cc1-c1cc(C(=O)Nc2ccc(OC(F)(F)Cl)cc2)cnc1N1C[C@H](O)[C@@H](O)C1 [Example 296, N-(4-(Chlorodifluoromethoxy)phenyl)-6-((3S,4S)-3,4-dihydroxypyrrolidin-1-yl)-5-(5-fluoro-2-methylphenyl)nicotinamide]"
8,0.5,"N#Cc1ncc(F)cc1-c1cc(C(=O)Nc2ccc(OC(F)(F)Cl)cc2)cnc1N1CC[C@@H](O)C1 [Example 292, (R)—N-(4-(Chlorodifluoromethoxy)phenyl)-2′-cyano-5′-fluoro-2-(3-hydroxypyrrolidin-1-yl)-[3,3′-bipyridine]-5-carboxamide]"
9,0.7,"N#Cc1ccc(F)c(-c2cc(C(=O)Nc3ccc(OC(F)(F)Cl)cc3)cnc2N2CC[C@@H](O)C2)c1 [Example 295, (R)—N-(4-(Chlorodifluoromethoxy)phenyl)-5-(5-cyano-2-fluorophenyl)-6-(3-hydroxypyrrolidin-1-yl)nicotinamide]"
10,3,"Cc1ccc(F)cc1-c1cc(C(=O)Nc2ccc(OC(F)(F)Cl)cc2)cnc1N1CC[C@@H](O)C1 [Example 294, (R)—N-(4-(Chlorodifluoromethoxy)phenyl)-5-(5-fluoro-2-methylphenyl)-6-(3-hydroxypyrrolidin-1-yl)nicotinamide]"

# Target: T1, ABL1 (64-515)
# Test: Radio ABL1 (64-515) assay (radiometric filter-binding)
# Format: biochemical
row,IC50 [nM],SMILES
1,< 3,"Cc1ncc(-c2cc(C(=O)Nc3ccc(OC(F)(F)F)cc3)ccc2N2CC[C@@H](O)C2)cn1 [Example 3, (R)-4-(3-Hydroxypyrrolidin-1-yl)-3-(2-methylpyrimidin-5-yl)-N-(4-(trifluoromethoxy)phenyl)benzamide]"
2,5,"N#Cc1ncc(-c2cc(C(=O)Nc3ccc(OC(F)(F)F)cc3)cnc2N2CC[C@H](CO)C2)cn1 [Example 80, (S)-5-(2-Cyanopyrimidin-5-yl)-6-(3-(hydroxymethyl)pyrrolidin-1-yl)-N-(4-(trifluoromethoxy)phenyl)nicotinamide]"
3,4,"O=C(Nc1ccc(OC(F)(F)F)cc1)c1cnc(N2CC[C@@H](O)C2)c(-c2ccc3ccncc3c2)c1 [Example 63, (R)-6-(3-Hydroxypyrrolidin-1-yl)-5-(isoquinolin-7-yl)-N-(4-(trifluoromethoxy)phenyl)nicotinamide]"
4,< 3,O=C(Nc1ccc(OC(F)(F)F)cc1)c1cnc(N2CCCC(CO)C2)c(-c2cncnc2)c1 (centres unmarked) [Example 19]
5,< 3,"Cc1ccc(-c2cc(C(=O)Nc3ccc(OC(F)(F)F)cc3)cnc2N2CC[C@H](CN)C2)cn1 [Example 107, (R)-2-(3-(Aminomethyl)pyrrolidin-1-yl)-6′-methyl-N-(4-(trifluoromethoxy)phenyl)-[3,3′-bipyridine]-5-carboxamide]"
6,< 3,"CN(C)C1CCN(c2ncc(C(=O)Nc3ccc(OC(F)(F)F)cc3)cc2-c2cncnc2)C1 (centres unmarked) [Example 112, 6-(3-(Dimethylamino)pyrrolidin-1-yl)-5-(pyrimidin-5-yl)-N-(4-(trifluoromethoxy)phenyl)nicotinamide]"
7,11,"CCc1ccc(-c2cc(C(=O)Nc3ccc(OC(F)(F)F)cc3)cnc2N2CC[C@H](CO)C2)cn1 [Example 83, (S)-6′-Ethyl-2-(3-(hydroxymethyl)pyrrolidin-1-yl)-N-(4-(trifluoromethoxy)phenyl)-[3,3′-bipyridine]-5-carboxamide]"
8,< 3,"CN[C@H]1CCN(c2ncc(C(=O)Nc3ccc(OC(F)(F)F)cc3)cc2-c2cccnc2)C1 [Example 103, (S)-2-(3-(Methylamino)pyrrolidin-1-yl)-N-(4-(trifluoromethoxy)phenyl)-[3,3′-bipyridine]-5-carboxamide]"
9,< 3,"Cc1ccc(-c2cc(C(=O)Nc3ccc(OC(F)(F)F)cc3)cnc2N2CCCN(C)CC2)cn1 [Example 147, 6′-Methyl-2-(4-methyl-1,4-diazepan-1-yl)-N-(4-(trifluoromethoxy)phenyl)-[3,3′-bipyridine]-5-carboxamide]"
10,< 3,CC(=O)NC1CCN(c2ncc(C(=O)Nc3ccc(OC(F)(F)F)cc3)cc2-c2cncnc2)C1 (centres unmarked) [Example 15]
11,< 3,N#C[C@H]1CCCN(c2ncc(C(=O)Nc3ccc(OC(F)(F)F)cc3)cc2-c2cncnc2)C1 [Example 24]
12,3,"CN[C@H]1CCN(c2ncc(C(=O)Nc3ccc(OC(F)(F)F)cc3)cc2-c2ccc(C)nc2)C1 [Example 104, (S)-6′-Methyl-2-(3-(methylamino)pyrrolidin-1-yl)-N-(4-(trifluoromethoxy)phenyl)-[3,3′-bipyridine]-5-carboxamide]"
13,< 3,N#C[C@@H]1CCCN(c2ncc(C(=O)Nc3ccc(OC(F)(F)F)cc3)cc2-c2cncnc2)C1 [Example 23]
14,< 3,"CN(C)CCCN(C)c1ncc(C(=O)Nc2ccc(OC(F)(F)F)cc2)cc1-c1cccnc1 [Example 168, 2-((3-(Dimethylamino)propyl)(methyl)amino)-N-(4-(trifluoromethoxy)phenyl)-[3,3′-bipyridine]-5-carboxamide]"
15,< 3,"CN1CCCN(c2ncc(C(=O)Nc3ccc(OC(F)(F)F)cc3)cc2-c2cccnc2)CC1 [Example 146, 2-(4-Methyl-1,4-diazepan-1-yl)-N-(4-(trifluoromethoxy)phenyl)-[3,3′-bipyridine]-5-carboxamide]"
16,< 3,CN(c1ncc(C(=O)Nc2ccc(OC(F)(F)F)cc2)cc1-c1cncnc1)C1CCOCC1 [Example 27]
17,< 3,CN1CC2CN(c3ncc(C(=O)Nc4ccc(OC(F)(F)F)cc4)cc3-c3cncnc3)CC2C1 (centres unmarked) [Example 16]
18,< 3,CC(=O)NC1CCCN(c2ncc(C(=O)Nc3ccc(OC(F)(F)F)cc3)cc2-c2cncnc2)C1 (centres unmarked) [Example 20]
19,< 3,"Cc1ccc(-c2cc(C(=O)Nc3ccc(OC(F)(F)F)cc3)cnc2N2CCC(O)C2)cn1 (centres unmarked) [Example 30, 2-(3-Hydroxypyrrolidin-1-yl)-6′-methyl-N-(4-(trifluoromethoxy)phenyl)-[3,3′-bipyridine]-5-carboxamide]"
20,< 3,"Cc1ccc(-c2cc(C(=O)Nc3ccc(OC(F)(F)F)cc3)cnc2N(C)CCO)cn1 [Example 153, 2-((2-Hydroxyethyl)(methyl)amino)-6′-methyl-N-(4-(trifluoromethoxy)phenyl)-[3,3′-bipyridine]-5-carboxamide]"
21,< 3,"CN[C@@H]1CCN(c2ncc(C(=O)Nc3ccc(OC(F)(F)F)cc3)cc2-c2ccc(C)nc2)C1 [Example 101, (R)-6′-Methyl-2-(3-(methylamino)pyrrolidin-1-yl)-N-(4-(trifluoromethoxy)phenyl)-[3,3′-bipyridine]-5-carboxamide]"
22,< 3,"O=C(Nc1ccc(OC(F)(F)F)cc1)c1cnc(N2CC[C@@H](CO)C2)c(-c2cccnc2)c1 [Example 76, (R)-2-(3-(Hydroxymethyl)pyrrolidin-1-yl)-N-(4-(trifluoromethoxy)phenyl)-[3,3′-bipyridine]-5-carboxamide]"
23,< 3,"O=C(Nc1ccc(OC(F)(F)F)cc1)c1cnc(N2CCCC2)c(-c2cncnc2)c1 [Example 67, 5-(Pyrimidin-5-yl)-6-(pyrrolidin-1-yl)-N-(4-(trifluoromethoxy)phenyl)nicotinamide]"
24,< 3,"N[C@@H]1CCN(c2ncc(C(=O)Nc3ccc(OC(F)(F)F)cc3)cc2-c2cccnc2)C1 [Example 94, (R)-2-(3-Aminopyrrolidin-1-yl)-N-(4-(trifluoromethoxy)phenyl)-[3,3′-bipyridine]-5-carboxamide]"
25,12,"COc1ccc(-c2cc(C(=O)Nc3ccc(OC(F)(F)F)cc3)cnc2NCCCO)cn1 [Example 164, 2-((3-Hydroxypropyl)amino)-6′-methoxy-N-(4-(trifluoromethoxy)phenyl)-[3,3′-bipyridine]-5-carboxamide]"
26,30,"Cc1ccc(-c2cc(C(=O)Nc3ccc(OC(F)(F)F)cc3)cnc2N(C)CCCO)cn1 [Example 167, 2-((3-Hydroxypropyl)(methyl)amino)-6′-methyl-N-(4-(trifluoromethoxy)phenyl)-[3,3′-bipyridine]-5-carboxamide]"
27,< 3,"CN[C@@H]1CCN(c2ncc(C(=O)Nc3ccc(OC(F)(F)F)cc3)cc2-c2cccnc2)C1 [Example 100, (R)-2-(3-(Methylamino)pyrrolidin-1-yl)-N-(4-(trifluoromethoxy)phenyl)-[3,3′-bipyridine]-5-carboxamide]"
28,< 3,"N[C@H]1CCN(c2ncc(C(=O)Nc3ccc(OC(F)(F)F)cc3)cc2-c2cccnc2)C1 [Example 97, (S)-2-(3-Aminopyrrolidin-1-yl)-N-(4-(trifluoromethoxy)phenyl)-[3,3′-bipyridine]-5-carboxamide]"
